Results on 1 compound are retold here after US8404696B2, “Quinazoline-2,4-dione derivative, and medical compositions for the prophylaxis and treatment of cranial nerve disease containing the same” (Shin Poong Pharmaceutical Co., Ltd., priority 2008, dated 2013).

Molecules are shown by their SMILES.

The test system of this assay is pentylentetrazole (PTZ)-induced convulsion. Put plainly: Anti-convulsant effect, pentylentetrazole (PTZ) test. The settings on record: 10 mg/kg intraperitoneally, PTZ 80 mg/kg subcutaneously, (animals/total). The assay is classed as in vivo. The procedure:
An experiment was performed by the method of Ali et al. (Ali, A. et al. 2006, Pharmacological Reports, 58: 242-245). A 10 mg/kg dose of compound was intraperitoneally administered to identify the anti-convulsant effect and the effect was observed (Table 8). Researching the process of activity was performed by the Anti-epileptic Drug Development Program (ADD) of NIH during development of the anti-convulsant drug. One of the assessed items of anti-convulsant activity in the first step of this program is the pentylentetrazole (PTZ) test. […] After 10 mg/kg of the testing drug was administered, assessment was performed by estimating the initiation time of convulsion, duration until convulsion completely disappeared and mortality rate. It was assessed as having an anti-convulsant effect when a single episode of clonic spasm was not shown over 5 seconds on at least one of the 4 laboratory animals after PTZ administration.

Take `CN1C(=O)CN=C(c2ccccc2)c2cc(Cl)ccc21` [Diazepam, reference compound]: the mortality rate (negative control 70(17/23)) is 0(0/6) %. The “Induction percentage of convulsion” value (negative control 100(23/23)) is on record as 0(0/6) %.
